Entries after “also recorded” stand apart in the source; their conditions may differ.
Experiments:
MCF7-Tam cells = assay: MTT cell proliferation assay with tamoxifen in MCF7-Tam; type: cell-based, human; conditions: 1 μmol/L tamoxifen
Procedure: MCF7-Tam cells were transfected with let-7 mimics or negative control in normal growth medium for 1 day, or in medium with 2.5% charcoal-stripped FBS for 2 days to exhaust endogenous estrogen. Ten thousand cells in the volume of 100 μL were seeded in a 96-well plate for 12 hours and assay lasted for another 4 days. For tamoxifen treatment, 1 μmol/L tamoxifen was added to each well of 96-well plate. Each treatment had 12 replicates on the plate. Medium volume was increased to 200 μL after the assay began. The cells were then incubated in 0.83 mg/mL 3-[4,5-dimethylthiazol-2-yl]-2,5-diphenyltetrazolium bromide (MTT) in growth medium at 37° C. for 4 hours and lysed in 100 μL of dimethyl sulfoxide at room temperature for 15 minutes. The absorbance in each well was measured at […] with an ELx800 Absorbance Microplate Reader (Biotek, Winooski, Vt.). Cell growth was expressed as a fraction of absorbance at day 0.

ER-α = assay: Immunoblot of ER-α after transfection in MCF7; type: cell-based, human; conditions: MCF7, mimics 60 nmol/L
Excerpt: Immunoblot analysis. For Western blot in FFPE tissues, an established method was followed (Addis et al., 2009, Proteomics 9:3815-23). For MCF7 cell line, let-7 mimics and negative control miRNA (60 nmol/L), or let-7 inhibitors and anti-miR negative control (60 nmol/L) were transfected following the protocol of siPORT NeoFX Transfection Agent (Applied Biosystems), The Western blot procedure was described before (Zhang et al., 2010, J Proteome Res., 9(2):980-989). Antibody information is as follows: ER-α, RB-9016-P1, Thermoscientific; Cyclin D1, sc-8396, Santa Cruz; pS2, ab80782 was Abeam; β-Actin, sc-69879, Santa Cruz.

[1] = E2 free medium (2.5% charcoal-stripped FBS)
[2] = complete (normal growth) medium with 10% FBS

Substance	tamoxifen sensitivity / cell growth (MTT) with tamoxifen (MCF7-Tam cells; [1])	tamoxifen sensitivity / cell growth (MTT) with tamoxifen (MCF7-Tam cells; [2])	expression of ER-α (protein) (ER-α; after 2 days)	expression of ER-α (protein) (ER-α; after 6 days)
let-7b: let-7b miRNA (mimic), 3′-UUGGUGUGUUGGAUGAUGGAGU-5′ (SEQ ID NO:8) (chemistry not given here; listed 3' to 5')	grew significantly slower; also recorded: significantly enhanced tamoxifen sensitivity	does not affect tamoxifen sensitivity	significantly depressed the expression of ER-α	dramatically down-regulated the expression of ER-α
let-7i: let-7i miRNA (mimic), 3′-UUGUCGUGUUUGAUGAUGGAGU-5′ (SEQ ID NO:14) (chemistry not given here; listed 3' to 5')	grew significantly slower; also recorded: significantly enhanced tamoxifen sensitivity	does not affect tamoxifen sensitivity	significantly depressed the expression of ER-α	dramatically down-regulated the expression of ER-α

Source: patent US8841269B2, “Polynucleotides for use in treating and diagnosing cancers” (Creighton University, priority 2010, dated 2014)
